Target: T1, EBP (Homo sapiens, UniProt Q15125)
T1 construct: HEK293T cells were utilized as the source of EBP enzyme; endogenous in cells; host or cells: HEK293T
Experiment: EBP Functional Assay (EBP immunoaffinity LC-MS assay)
Format: biochemical
Settings: HEK293T cells as source of EBP enzyme; substrate zymosterol-d5, 37° C. for 4 h; percent conversion to dehydrolathosterol-d5 by LC-APCI MRM MS
Outline: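 IC50 comes from a 4-parameter logistic fit of zymosterol-d5-to-product percent conversion, measured by LC-APCI MRM MS after sterol extraction. Compounds were preincubated 30 min with EBP from HEK293T cells before deuterated substrate was added for 4 h at 37° C; Tasin-1 served as reference.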

T1 sequence (Q15125 whole entry): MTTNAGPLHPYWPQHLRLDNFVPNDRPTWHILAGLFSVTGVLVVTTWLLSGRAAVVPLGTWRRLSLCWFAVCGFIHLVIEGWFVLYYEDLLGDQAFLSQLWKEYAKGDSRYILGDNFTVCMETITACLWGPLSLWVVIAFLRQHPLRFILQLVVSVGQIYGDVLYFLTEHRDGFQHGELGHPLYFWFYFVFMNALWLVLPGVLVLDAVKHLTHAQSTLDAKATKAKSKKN

Row | Compound | IC50 [nM]
1 | O=S(=O)(c1ccc(OC(F)F)cc1)N1CCC2(CC1)C[C@H](N1CC[C@]3(CCOC3)C1)CO2 (single isomer, unassigned) [Example 30b] | 250 to 1500
2 | COCCNC1COC2(CCN(S(=O)(=O)c3cc(C#N)ccc3F)CC2)C1 (centres unmarked) [Example 44, 4-Fluoro-3-((3-((2-methoxyethyl)amino)-1-oxa-8-azaspiro[4.5]decan-8-yl)sulfonyl)benzonitrile] | 250 to 1500
3 | Cc1cc(C(F)(F)F)ncc1S(=O)(=O)N1CCC2(CC1)CC(N1CCOCC1)CO2 (centres unmarked) [Example 4] | 250 to 1500
4 | N#Cc1ccc(F)c(S(=O)(=O)N2CCC3(CC2)CC(N2CCCCC2)CO3)c1 (centres unmarked) [Example 47, 4-Fluoro-3-((3-(piperidin-1-yl)-1-oxa-8-azaspiro[4.5]decan-8-yl)sulfonyl)benzonitrile] | 100 to 250
5 | Cn1nc(C(F)(F)F)cc1S(=O)(=O)N1CCC2(CC1)CC(N1CCOCC1)CO2 (single isomer, unassigned) [Example 7, (R)- or (S)-8-((1-methyl-3-(trifluoromethyl)-1H-pyrazol-5-yl)sulfonyl)-3-morpholino-1-oxa-8-azaspiro[4.5]decane] | 250 to 1500
6 | O=S(=O)(c1ccc(F)cc1)N1CCC2(CC1)CC(N1CC3(COC3)C1)CO2 (centres unmarked) [Example 8] | 250 to 1500
7 | COc1ncc(C)cc1S(=O)(=O)N1CCC2(CCC(N3CC4(CCOC4)C3)C2)CC1 (centres unmarked) [Example 43] | < 100

Results, then the compound that gave them:

Row | IC50 [nM] | Compound
8 | < 100 | Cc1ccc(S(=O)(=O)N2CCC3(CC2)C[C@@H](N2CC(O)C2)CO3)c(Cl)c1 (single isomer, unassigned) [Example 53a]
9 | 100 to 250 | Cc1cc(S(=O)(=O)N2CCC3(CCC(N4C[C@H]5C[C@@H]4CO5)C3)CC2)n(C)n1 (stereo partly drawn) [Example 88, (1R,4R)-5-(8-((1,3-dimethyl-1H-pyrazol-5-yl)sulfonyl)-8-azaspiro[4.5]decan-2-yl)-2-oxa-5-azabicyclo[2.2.1]heptane]
10 | 250 to 1500 | CCn1ncc(S(=O)(=O)N2CCC3(CCC(N4CC5(COC5)C4)C3)CC2)n1 (centres unmarked) [Example 111]
11 | 250 to 1500 | COc1ncc(C)cc1S(=O)(=O)N1CCC2(CC1)CC(N1CC3(COC3)C1)CO2 (centres unmarked) [Example 117, 8-((2-methoxy-5-methylpyridin-3-yl)sulfonyl)-3-(2-oxa-6-azaspiro[3.3]heptan-6-yl)-1-oxa-8-azaspiro[4.5]decane]
12 | 100 to 250 | O=S(=O)(c1ccc(OC(F)F)cc1)N1CCC2(CC1)CC(N1CC3(CCCOC3)C1)CO2 (centres unmarked) [Example 143, 8-((4-(difluoromethoxy)phenyl)sulfonyl)-3-(6-oxa-2-azaspiro[3.5]nonan-2-yl)-1-oxa-8-azaspiro[4.5]decane]
13 | 100 to 250 | COc1ncc(C)cc1S(=O)(=O)N1CCC2(CC1)CC(N1CC3(COC3)C1)C2 [Example 93, 6-(7-((2-methoxy-5-methylpyridin-3-yl)sulfonyl)-7-azaspiro[3.5]nonan-2-yl)-2-oxa-6-azaspiro[3.3]heptane]
14 | 100 to 250 | O=S(=O)(c1ccc2cccnc2c1)N1CCC2(CCC(N3CC4(COC4)C3)C2)CC1 (centres unmarked) [Example 144, 6-(8-(quinolin-7-ylsulfonyl)-8-azaspiro[4.5]decan-2-yl)-2-oxa-6-azaspiro[3.3]heptane]
15 | < 100 | COCCN(C)C1CCC2(CCN(S(=O)(=O)c3ccc(OC)nc3C)CC2)C1 (centres unmarked) [Example 100, 8-((6-methoxy-2-methylpyridin-3-yl)sulfonyl)-N-(2-methoxyethyl)-N-methyl-8-azaspiro[4.5]decan-2-amine]
16 | 100 to 250 | Cn1nc(C2CC2)cc1S(=O)(=O)N1CCC2(CC1)CC(N1CC3(COC3)C1)CO2 (centres unmarked) [Example 56, 8-((3-Cyclopropyl-1-methyl-1H-pyrazol-5-yl)sulfonyl)-3-(2-oxa-6-azaspiro[3.3]heptan-6-yl)-1-oxa-8-azaspiro[4.5]decane]
17 | 250 to 1500 | Cn1nc(C2CC2)cc1S(=O)(=O)N1CCC2(CC1)C[C@@H](N1CC3(COC3)C1)CO2 (single isomer, unassigned) [Example 57a]
